Tests used:
[1] = target: Acetylcholinesterase (Electrophorus electricus, UniProt O42275); experiment: Inhibition of Electrophorus electricus (electric eel) acetylcholinesterase (AChE) using […] as substrate by Ellman method
[2] = target: Cholinesterase (Equus caballus) (UniProt P81908); experiment: Inhibition of Equus caballus (horse) serum butyrylcholinesterase (BChE) at 10 '-5 M by Ellman method
[3] = target: Cholinesterase (Equus caballus) (UniProt P81908); experiment: Inhibition of Equus caballus (horse) serum butyrylcholinesterase (BChE) at 10 '-4 M by Ellman method
[4] = target: Acetylcholinesterase (Electrophorus electricus) (UniProt O42275); experiment: Inhibition of Electrophorus electricus (electric eel) acetylcholinesterase (AChE) using […] as substrate at 10 '-5 M by Ellman method
Sequence of Acetylcholinesterase (Electrophorus electricus) (O42275 24-633 limits assumed): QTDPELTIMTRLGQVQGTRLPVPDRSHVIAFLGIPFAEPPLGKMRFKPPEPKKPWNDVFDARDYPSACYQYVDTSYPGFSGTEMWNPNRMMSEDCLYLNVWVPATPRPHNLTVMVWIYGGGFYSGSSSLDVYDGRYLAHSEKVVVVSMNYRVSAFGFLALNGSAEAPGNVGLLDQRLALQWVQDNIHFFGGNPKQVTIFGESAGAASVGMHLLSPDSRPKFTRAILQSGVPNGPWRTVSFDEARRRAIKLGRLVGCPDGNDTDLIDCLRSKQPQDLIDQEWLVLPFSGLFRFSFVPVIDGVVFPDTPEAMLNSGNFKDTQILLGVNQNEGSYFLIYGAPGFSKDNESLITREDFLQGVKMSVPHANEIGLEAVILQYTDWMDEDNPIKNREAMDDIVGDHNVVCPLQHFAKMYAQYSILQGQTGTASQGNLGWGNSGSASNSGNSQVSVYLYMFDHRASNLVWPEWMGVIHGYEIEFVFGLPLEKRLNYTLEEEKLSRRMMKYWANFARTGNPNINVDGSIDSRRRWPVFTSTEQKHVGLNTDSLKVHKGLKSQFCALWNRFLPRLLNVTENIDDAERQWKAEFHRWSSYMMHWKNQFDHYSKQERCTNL

Sequence of Acetylcholinesterase (O42275 whole entry): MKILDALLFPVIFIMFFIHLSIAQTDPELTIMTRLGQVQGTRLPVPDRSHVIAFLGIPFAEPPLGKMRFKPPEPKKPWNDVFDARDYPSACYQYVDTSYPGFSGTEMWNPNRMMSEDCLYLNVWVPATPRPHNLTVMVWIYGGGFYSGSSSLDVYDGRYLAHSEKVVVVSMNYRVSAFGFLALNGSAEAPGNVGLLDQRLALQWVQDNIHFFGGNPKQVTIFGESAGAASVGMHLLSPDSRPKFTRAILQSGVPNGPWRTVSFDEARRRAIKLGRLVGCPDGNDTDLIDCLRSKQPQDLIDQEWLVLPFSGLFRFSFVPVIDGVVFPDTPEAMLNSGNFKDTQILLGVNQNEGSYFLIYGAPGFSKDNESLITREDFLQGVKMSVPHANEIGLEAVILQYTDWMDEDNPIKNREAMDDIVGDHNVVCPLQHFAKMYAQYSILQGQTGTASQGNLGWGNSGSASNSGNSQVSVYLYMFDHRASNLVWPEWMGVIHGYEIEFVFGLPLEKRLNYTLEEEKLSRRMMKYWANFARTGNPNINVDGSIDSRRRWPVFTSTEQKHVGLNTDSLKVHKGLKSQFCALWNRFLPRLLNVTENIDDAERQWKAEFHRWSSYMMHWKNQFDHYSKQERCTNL
Sequence of Cholinesterase (Equus caballus) (P81908 whole entry): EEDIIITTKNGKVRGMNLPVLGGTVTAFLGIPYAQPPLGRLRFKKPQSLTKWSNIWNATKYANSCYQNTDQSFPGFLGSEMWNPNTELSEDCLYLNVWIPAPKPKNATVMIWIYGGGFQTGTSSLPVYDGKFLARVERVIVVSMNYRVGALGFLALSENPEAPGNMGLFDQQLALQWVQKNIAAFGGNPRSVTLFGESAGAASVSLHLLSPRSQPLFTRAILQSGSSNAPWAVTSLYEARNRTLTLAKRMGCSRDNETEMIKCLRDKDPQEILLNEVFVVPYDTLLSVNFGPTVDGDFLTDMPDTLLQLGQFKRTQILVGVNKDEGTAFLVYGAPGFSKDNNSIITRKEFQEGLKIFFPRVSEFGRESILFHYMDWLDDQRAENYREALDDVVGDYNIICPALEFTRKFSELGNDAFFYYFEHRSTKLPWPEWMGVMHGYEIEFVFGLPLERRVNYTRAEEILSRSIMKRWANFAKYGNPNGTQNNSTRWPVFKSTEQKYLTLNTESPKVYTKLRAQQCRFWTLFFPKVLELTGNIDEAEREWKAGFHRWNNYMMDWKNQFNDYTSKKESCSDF

Row | SMILES | IC50 [1] [µM] | inhibition [2] [%] | inhibition [3] [%] | inhibition [4] [%]
1 | COc1ccc(C(O)c2nccc3cc(OC)c(OC)cc23)cc1OC (stereo not drawn) | 10.7 | – | – | –
2 | COc1ccc(CCNC(=O)Cc2ccc(OC)c(OC)c2)cc1OC | – | 0 | 1.7 | 5.9
3 | COc1ccc(C(=O)c2nccc3cc(OC)c(OC)cc23)cc1OC | – | – | – | 2.3
4 | COc1ccc(Cc2nccc3cc(OC)c(OC)cc23)cc1OC [PAPAVERINE] | 24.3 | – | – | –
5 | COc1ccc(CC2NCCc3cc(OC)c(OC)cc32)cc1OC (stereo not drawn) | – | 5.2 | 17.4 | 9
6 | COc1ccc(CC2=NCCc3cc(OC)c(OC)cc32)cc1OC | 7 | 0 | 18 | 53

— ChEMBL document CHEMBL3046796, “Evaluation of a new lead for acetylcholinesterase inhibition” (Med Chem Res, 2009)
